Data: patent publication US8987245B2, “Composition and method for affecting obesity and related conditions” (priority 2008, dated 2015)
Entries after “also recorded” stand apart in the source; their conditions may differ.

Tests used:
[1] = test system: diet-induced mouse model of obesity; assay: Experiment I: diet-induced mouse model of obesity, body weight, fat pad weights, caloric intake; assay type: in vivo, male C57BL/6J mice
Description: The following experiment involved a diet-induced mouse model of obesity. In particular, male C57BL/6J mice (these wildtype mice are genetically distinct from ob/ob and db/db mice and are not leptin-deficient) were placed on a high fat diet (HFD) or control diet (CON) at 8 wks of age, and MnTBAP or vehicle administration was initiated 5 months later, when all mice were at a steady state body weight. Mice receiving the CON diet served as lean control animals to those receiving the HFD diet. Each of the CON and HFD mice groups were then further divided into two groups. One of the CON and HFD groups was treated with 10 mg MnTBAP/kg of body weight for 30 days, and the other groups received a vehicle for 30 days. The term “vehicle” refers to the solvent used to deliver MnTBAP. In this experiment, MnTBAP was dissolved in 2% bicarbonate (pH 8.0) to a final concentration of 2 mg/mL. Vehicle-treated mice received a volume of vehicle that would have been sufficient to deliver 10 mg of MnTBAP per kg of body weight were the compound present. MnTBAP was purchased from A.G. Scientific Inc., San Diego, Calif. […] The above-identified doses of MnTBAP and vehicle were administered to the mice as daily intraperitoneal injections.
At the start of the treatment, there were no significant differences in body weight between MnTBAP and vehicle groups within each diet (CON: p=0.99; HFD: p=0.77). In addition, HFD mice were dramatically heavier than CON mice at the start of treatment (p<0.001).
Before and after treatment, insulin sensitivity (IS) was assessed using an insulin-assisted glucose tolerance test (IA-GTT) after a 16-hour fast. Fasting body weights were measured at the end of each fast just prior to initiation of the IA-GTT. Approximately 5-7 days after the post-treatment IA-GTT, mice were stimulated with insulin ten minutes prior to delivery of an anesthetic cocktail to induce deep anesthesia for harvesting of quadriceps, tibialis anterior, soleus, gastrocnemius, subcutaneous white adipose tissue (SWAT), epididymal white adipose tissue (EWAT), and liver. In addition, SWAT and EWAT weights were measured immediately after harvest. Tissues were snap frozen in liquid nitrogen and stored at −80° C. until analysis. One quadriceps muscle from each mouse was homogenized for biochemical analyses.
Fasting body weights; fed-state body weights; and plasma glucose levels at various times during the IA-GTT, a test used to assess insulin sensitivity, were compared after treatment using a 2×2 analysis of variance (ANOVA) with repeated measures. Here “repeated measures” refers to the time of glucose measurement during the IA-GTT: 0, 15, 30, 45, 60 min. Subcutaneous white adipose tissue weights; epididymal white tissue adipose weights; caloric consumption; and all biochemical data, such as UCP-2, UCP-3, and PKB expression, were compared using a 2×2 ANOVA without repeated measures.

[2] = test system: diet-induced mouse model of obesity; assay: Experiment I: insulin-assisted glucose tolerance test (IA-GTT), insulin sensitivity; assay type: in vivo, male C57BL/6J mice; settings: HFD mice, 10 mg/kg daily, after 16-hour fast
Description: (§1) The following experiment involved a diet-induced mouse model of obesity. In particular, male C57BL/6J mice (these wildtype mice are genetically distinct from ob/ob and db/db mice and are not leptin-deficient) were placed on a high fat diet (HFD) or control diet (CON) at 8 wks of age, and MnTBAP or vehicle administration was initiated 5 months later, when all mice were at a steady state body weight. Mice receiving the CON diet served as lean control animals to those receiving the HFD diet. Each of the CON and HFD mice groups were then further divided into two groups. One of the CON and HFD groups was treated with 10 mg MnTBAP/kg of body weight for 30 days, and the other groups received a vehicle for 30 days. The term “vehicle” refers to the solvent used to deliver MnTBAP. In this experiment, MnTBAP was dissolved in 2% bicarbonate (pH 8.0) to a final concentration of 2 mg/mL. Vehicle-treated mice received a volume of vehicle that would have been sufficient to deliver 10 mg of MnTBAP per kg of body weight were the compound present. […]
(§2) Before and after treatment, insulin sensitivity (IS) was assessed using an insulin-assisted glucose tolerance test (IA-GTT) after a 16-hour fast. Fasting body weights were measured at the end of each fast just prior to initiation of the IA-GTT. […] In addition, SWAT and EWAT weights were measured immediately after harvest. […]

[3] = test system: uncoupling protein-3 (UCP3); assay: Experiment I: UCP3 expression in skeletal muscle (quadriceps); assay type: in vivo, male C57BL/6J mice
Description: as §1, §2

protein kinase B (PKB) = assay: Experiment I: PKB activity and expression in skeletal muscle (quadriceps); assay type: in vivo, male C57BL/6J mice
Description: The following experiment involved a diet-induced mouse model of obesity. In particular, male C57BL/6J mice (these wildtype mice are genetically distinct from ob/ob and db/db mice and are not leptin-deficient) were placed on a high fat diet (HFD) or control diet (CON) at 8 wks of age, and MnTBAP or vehicle administration was initiated 5 months later, when all mice were at a steady state body weight. Mice receiving the CON diet served as lean control animals to those receiving the HFD diet. Each of the CON and HFD mice groups were then further divided into two groups. One of the CON and HFD groups was treated with 10 mg MnTBAP/kg of body weight for 30 days, and the other groups received a vehicle for 30 days. […]
as §2
In addition to affecting weight loss, MnTBAP has been shown by the above experiment to increase insulin sensitivity. […] It is noted that HFD mice were very insulin resistant before treatment (p<0.001), but a main effect for diet after treatment (p=0.3) was not detected, a result that underscores MnTBAP's effect on insulin action.

[4] = test system: diet-induced mouse model of obesity; assay: Experiment II: diet-induced mouse model of obesity, food intake and body weight; assay type: in vivo, male C57BL/6J mice; settings: 10 mg/kg for 36 days
Description: The following experiment involved a diet-induced mouse model of obesity. In particular, male C57BL/6J mice (these wildtype mice are genetically distinct from ob/ob and db/db mice and are not leptin-deficient) were placed on a high fat diet (HFD) or control diet (CON) at 8 wks of age, and MnTBAP or vehicle administration was initiated 6 months later, when all mice were at a steady state body weight. Mice receiving the CON diet served as lean control animals to those receiving the HFD. Each of the CON and HFD mice groups were then further divided into two groups. One of the CON and HFD groups was treated with 10 mg MnTBAP/kg of body weight for 36 days, and the other groups received a vehicle for 36 days. Food intake was measured on days 0, 3, 9, 14 and 35 post-treatment.

[5] = cited from earlier work
[6] = many in ob/ob mice, younger mice; cited from earlier work
[7] = both CON and HFD mice, 10 mg/kg daily i.p. for 30 days
[8] = HFD mice, quadriceps, 10 mg/kg daily for four weeks

Question: Which “share of weight loss due to decreased SWAT and EWAT fat deposits” value ([1]; 10 mg/kg daily i.p. for 30 days) does the source give for O=C(O)c1ccc(-c2c3nc(c(-c4ccc(C(=O)O)cc4)c4ccc([n-]4)c(-c4ccc(C(=O)O)cc4)c4nc(c(-c5ccc(C(=O)O)cc5)c5ccc2[n-]5)C=C4)C=C3)cc1.[Mn+3] [MnTBAP, manganese [III] tetrakis (4-benzoic acid) porphyrin] here?
Answer: approximately 50%

Question: What about the “treatment time until significant weight loss, fed state” value ([1]; CON mice, 10 mg/kg daily i.p.) of the same compound?
Answer: 27 days

Question: What about the “body weight less than vehicle-treated mice after treatment” value ([1]; CON mice, 10 mg/kg daily i.p. for 30 days, vs CON vehicle) of the same compound?
Answer: 12.4%

Question: What about the “treatment time until significant weight loss, fed state” value ([1]; HFD mice, 10 mg/kg daily i.p.) of the same compound?
Answer: 15 days

Question: And the “weight loss after 30 days of treatment” value ([1]; HFD mice, 10 mg/kg daily i.p.)?
Answer: dramatic weight loss

Question: And the “body weight less than vehicle-treated mice after treatment” value ([1]; HFD mice, 10 mg/kg daily i.p. for 30 days, vs HFD vehicle)?
Answer: 18.6%

Question: And the “EWAT weight compared to vehicle” value [1, 7]?
Answer: dramatic reductions

Question: And the “SWAT weight compared to vehicle” value [1, 7]?
Answer: dramatic reductions

Question: What about the daily caloric intake [1, 7] of the same compound?
Answer: without affecting daily caloric intake

Question: And the “fasting body weight compared to vehicle” value [1, 7]?
Answer: dramatic reductions

Question: And the “fasting body weight after treatment vs before treatment” value ([1]; both HFD and CON mice, 10 mg/kg daily i.p. for 30 days)?
Answer: lower than before treatment

Question: What about the “insulin sensitivity (IA-GTT)” value [2] of the same compound?
Answer: significantly enhanced insulin sensitivity; also recorded: significantly improved insulin sensitivity

Question: What about the UCP3 levels ([3]; CON mice, skeletal muscle, 10 mg/kg daily) of the same compound?
Answer: lack of a significant increase

Question: What about the “UCP3 expression greater than vehicle” value [3, 8] of the same compound?
Answer: ~60%

Question: What about the PKB expression (protein kinase B (PKB); CON mice, 10 mg/kg daily) of the same compound?
Answer: A statistically significant increase in PKB expression was not observed

Question: And the “increase in activity and expression of PKB vs vehicle” value (protein kinase B (PKB); [8])?
Answer: ~60%

Question: And the “body weight and fat mass compared to vehicle-treated controls” value ([4]; CON mice)?
Answer: lost a significant amount

Question: And the “food intake vs vehicle” value ([4]; CON mice, days 0, 3, 9, 14 and 35)?
Answer: did not differ

Question: What about the “decrease in caloric intake over the course of the study” value ([4]; HFD mice) of the same compound?
Answer: 16.6%

Question: And the “food intake compared to vehicle-treated controls” value ([4]; HFD mice)?
Answer: markedly decreased food intake

Question: And the adverse side effects ([5]; doses up to 10 mg/kg of body weight)?
Answer: no known adverse side effects

Question: What about the “mortality rates and age of death” value ([5]; mice, up to a dose of 88 mg/kg of body weight) of the same compound?
Answer: does not increase mortality rates or decrease age of death

Question: And the “body weight change in known studies” value [6]?
Answer: either no change in weight or slowed weight gain but did not induce weight loss
